Test results published in PubChem BioAssay AID1845217 (Molecular Pharmacology Branch, DTP, NCI, 2023).
“And” between values parts separate entries of the source, which are not always exact repeats. Identical values can stand only once.

Tested on: VA-ES-BJ tumor spheroid viability
Assay: Anticancer human tumor VA-ES-BJ cell line growth inhibition;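 also: spheroids exposed to compounds for seven days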;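 as to viability, T/C: percent of DMSO vehicle control viability so 100% = untreated growth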
Settings: spheroids with HUVEC and MSC; for viability, T/C: stronger effect = lower value
Summary of the method: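 Complex tumor spheroids combined malignant cells with endothelial cells and mesenchymal stem cells. DNA-damaging drugs and DNA repair inhibitors were tested alone and in combination, at half-log dilutions down from clinical Cmax (top 10 microM if Cmax unknown), 0.25% DMSO final.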

[1] = curve of first compound, second compound 0.003 µM
[2] = curve of first compound, second compound 0.00949 µM
[3] = curve of first compound, second compound 0.03 µM
[4] = curve of first compound, second compound 0.0949 µM
[5] = curve of first compound, second compound 0.3 µM
[6] = second compound 0.003 µM, first compound 0.0949 µM
[7] = second compound 0.003 µM, first compound 0.3 µM
[8] = second compound 0.003 µM, first compound 0.949 µM
[9] = second compound 0.003 µM, first compound 3 µM
[10] = second compound 0.00949 µM, first compound 0.0949 µM
[11] = second compound 0.00949 µM, first compound 0.3 µM
[12] = second compound 0.00949 µM, first compound 0.949 µM
[13] = second compound 0.00949 µM, first compound 3 µM
[14] = second compound 0.03 µM, first compound 0.0949 µM
[15] = second compound 0.03 µM, first compound 0.3 µM
[16] = second compound 0.03 µM, first compound 0.949 µM
[17] = second compound 0.03 µM, first compound 3 µM
[18] = second compound 0.0949 µM, first compound 0.0949 µM
[19] = second compound 0.0949 µM, first compound 0.3 µM
[20] = second compound 0.0949 µM, first compound 0.949 µM
[21] = second compound 0.0949 µM, first compound 3 µM
[22] = second compound 0.3 µM, first compound 0.0949 µM
[23] = second compound 0.3 µM, first compound 0.3 µM
[24] = second compound 0.3 µM, first compound 0.949 µM
[25] = second compound 0.3 µM, first compound 3 µM

`O=C(c1cc(Cc2n[nH]c(=O)c3ccccc23)ccc1F)N1CCN(C(=O)C2CC2)CC1` + Cn1nnc2c(C(N)=O)ncn2c1=O was tested, and the IC50 (curve of first compound, second compound 1 µM) was > 30 µM, the IC50 (curve of first compound, second compound 3.16 µM) was 25.4 µM and the IC50 (curve of first compound, second compound 10 µM) was 9.76 µM. It also gave an IC50 (curve of first compound, second compound 31.6 µM) of 3.43 µM, an IC50 (curve of first compound, second compound 100 µM) of 0.669 µM and a viability, T/C (second compound 1 µM, first compound 0.0949 µM) of 114%. For the same compound, the viability, T/C (second compound 1 µM, first compound 0.3 µM) was 110%, the viability, T/C (second compound 1 µM, first compound 0.949 µM) was 111% and the viability, T/C (second compound 1 µM, first compound 3 µM) was 110%. It also gave a viability, T/C (second compound 1 µM, first compound 9.49 µM) of 75%, a viability, T/C (second compound 1 µM, first compound 30 µM) of 58.5% and a viability, T/C (second compound 3.16 µM, first compound 0.0949 µM) of 103%. For the same compound, the viability, T/C (second compound 3.16 µM, first compound 0.3 µM) was 110%, the viability, T/C (second compound 3.16 µM, first compound 0.949 µM) was 96.8% and the viability, T/C (second compound 3.16 µM, first compound 3 µM) was 106%. For the same compound, the viability, T/C (second compound 3.16 µM, first compound 9.49 µM) was 78.8%, the viability, T/C (second compound 3.16 µM, first compound 30 µM) was 45.2% and the viability, T/C (second compound 10 µM, first compound 0.0949 µM) was 110%. It also gave a viability, T/C (second compound 10 µM, first compound 0.3 µM) of 113%, a viability, T/C (second compound 10 µM, first compound 0.949 µM) of 111% and a viability, T/C (second compound 10 µM, first compound 3 µM) of 87.4%. For the same compound, the viability, T/C (second compound 10 µM, first compound 9.49 µM) was 51.9%, the viability, T/C (second compound 10 µM, first compound 30 µM) was 17% and the viability, T/C (second compound 31.6 µM, first compound 0.0949 µM) was 102%. The viability, T/C (second compound 31.6 µM, first compound 0.3 µM) was 112%, the viability, T/C (second compound 31.6 µM, first compound 0.949 µM) was 100% and the viability, T/C (second compound 31.6 µM, first compound 3 µM) was 54%. The viability, T/C (second compound 31.6 µM, first compound 9.49 µM) was 16.8%, the viability, T/C (second compound 31.6 µM, first compound 30 µM) was 8.16% and the viability, T/C (second compound 100 µM, first compound 0.0949 µM) was 77%. For the same compound, the viability, T/C (second compound 100 µM, first compound 0.3 µM) was 72%, the viability, T/C (second compound 100 µM, first compound 0.949 µM) was 40% and the viability, T/C (second compound 100 µM, first compound 3 µM) was 15.7%. It also gave a viability, T/C (second compound 100 µM, first compound 9.49 µM) of 7.74% and a viability, T/C (second compound 100 µM, first compound 30 µM) of 6.29%.
With `O=C(c1cc(Cc2n[nH]c(=O)c3ccccc23)ccc1F)N1CCN(C(=O)C2CC2)CC1` the viability, T/C (compound 0.0949 µM) was 113% and 96.3% and 94.1%, the viability, T/C (compound 0.3 µM) was 98.4% and 84.9% and 93.2% and the viability, T/C (compound 0.949 µM) was 101% and 89.1% and 92.5%. The viability, T/C (compound 3 µM) was 98.7% and 88% and 87%, the viability, T/C (compound 9.49 µM) was 74.6% and 71.3% and 67.4% and the viability, T/C (compound 30 µM) was 67.4% and 52.5% and 47.3%. The IC50 (curve of compound) was > 30 µM and 25.8 µM.
For `O=C(c1cc(Cc2n[nH]c(=O)c3ccccc23)ccc1F)N1CCN(C(=O)C2CC2)CC1` + CC[C@@]1(O)C(=O)OCc2c1cc1n(c2=O)Cc2cc3c(CN(C)C)c(O)ccc3nc2-1, the IC50 [1] was 12 µM, the IC50 [2] was 2.08 µM and the IC50 [3] was < 0.0949 µM. For the same compound, the IC50 [4] was < 0.0949 µM, the IC50 [5] was < 0.0949 µM and the viability, T/C [6] was 79.5%. It also gave a viability, T/C [7] of 86.5%, a viability, T/C [8] of 84.7% and a viability, T/C [9] of 72.9%. The viability, T/C (second compound 0.003 µM, first compound 9.49 µM) was 54.3%, the viability, T/C (second compound 0.003 µM, first compound 30 µM) was 35.1% and the viability, T/C [10] was 54.4%. It also gave a viability, T/C [11] of 62%, a viability, T/C [12] of 56.3% and a viability, T/C [13] of 46%. The viability, T/C (second compound 0.00949 µM, first compound 9.49 µM) was 30.9%, the viability, T/C (second compound 0.00949 µM, first compound 30 µM) was 13.7% and the viability, T/C [14] was 11.3%. It also gave a viability, T/C [15] of 11.9%, a viability, T/C [16] of 11.7% and a viability, T/C [17] of 8.85%. The viability, T/C (second compound 0.03 µM, first compound 9.49 µM) was 4.72%, the viability, T/C (second compound 0.03 µM, first compound 30 µM) was 3.5% and the viability, T/C [18] was 6.59%. The viability, T/C [19] was 7.45%, the viability, T/C [20] was 7.51% and the viability, T/C [21] was 7.62%. The viability, T/C (second compound 0.0949 µM, first compound 9.49 µM) was 6.91%, the viability, T/C (second compound 0.0949 µM, first compound 30 µM) was 2.51% and the viability, T/C [22] was 7.75%. For the same compound, the viability, T/C [23] was 8%, the viability, T/C [24] was 8.29% and the viability, T/C [25] was 8.19%. The viability, T/C (second compound 0.3 µM, first compound 9.49 µM) was 7.94% and the viability, T/C (second compound 0.3 µM, first compound 30 µM) was 4.56%.
`Cn1ncnc1[C@H]1c2n[nH]c(=O)c3cc(F)cc(c23)N[C@@H]1c1ccc(F)cc1` + CC[C@@]1(O)C(=O)OCc2c1cc1n(c2=O)Cc2cc3c(CN(C)C)c(O)ccc3nc2-1 was tested, and the IC50 [1] was 0.15 µM, the IC50 [2] was < 0.00949 µM and the IC50 [3] was < 0.00949 µM. For the same compound, the IC50 [4] was < 0.00949 µM, the IC50 [5] was < 0.00949 µM and the viability, T/C (second compound 0.003 µM, first compound 0.00949 µM) was 70.4%. It also gave a viability, T/C (second compound 0.003 µM, first compound 0.03 µM) of 54.7%, a viability, T/C [6] of 57.9% and a viability, T/C [7] of 44.7%. It also gave a viability, T/C [8] of 22.9%, a viability, T/C [9] of 5.42% and a viability, T/C (second compound 0.00949 µM, first compound 0.00949 µM) of 43.9%. It also gave a viability, T/C (second compound 0.00949 µM, first compound 0.03 µM) of 33.5%, a viability, T/C [10] of 28.4% and a viability, T/C [11] of 21%. It also gave a viability, T/C [12] of 10.6%, a viability, T/C [13] of 6.84% and a viability, T/C (second compound 0.03 µM, first compound 0.00949 µM) of 9.86%. For the same compound, the viability, T/C (second compound 0.03 µM, first compound 0.03 µM) was 8.29%, the viability, T/C [14] was 7.12% and the viability, T/C [15] was 6.39%. It also gave a viability, T/C [16] of 4.2%, a viability, T/C [17] of 3.72% and a viability, T/C (second compound 0.0949 µM, first compound 0.00949 µM) of 7.58%. For the same compound, the viability, T/C (second compound 0.0949 µM, first compound 0.03 µM) was 7.39%, the viability, T/C [18] was 8.32% and the viability, T/C [19] was 8.9%. For the same compound, the viability, T/C [20] was 4.82%, the viability, T/C [21] was 3.16% and the viability, T/C (second compound 0.3 µM, first compound 0.00949 µM) was 9.11%. It also gave a viability, T/C (second compound 0.3 µM, first compound 0.03 µM) of 9.07%, a viability, T/C [22] of 8.75% and a viability, T/C [23] of 9.02%. The viability, T/C [24] was 8.91% and the viability, T/C [25] was 7.66%.
